Measured values as given in patent publication US12630534B2 (TAKEDA PHARMACEUTICAL COMPANY LIMITED, priority 2020, dated 2026).

Target: T1, human GPR139 (Homo sapiens, UniProt Q6DWJ6)
T1 construct: expressed in transfected cells; host or cells: CHO-TREx (Life Technologies) cells, expression induced with doxycycline
T1 sequence (Q6DWJ6 1-353): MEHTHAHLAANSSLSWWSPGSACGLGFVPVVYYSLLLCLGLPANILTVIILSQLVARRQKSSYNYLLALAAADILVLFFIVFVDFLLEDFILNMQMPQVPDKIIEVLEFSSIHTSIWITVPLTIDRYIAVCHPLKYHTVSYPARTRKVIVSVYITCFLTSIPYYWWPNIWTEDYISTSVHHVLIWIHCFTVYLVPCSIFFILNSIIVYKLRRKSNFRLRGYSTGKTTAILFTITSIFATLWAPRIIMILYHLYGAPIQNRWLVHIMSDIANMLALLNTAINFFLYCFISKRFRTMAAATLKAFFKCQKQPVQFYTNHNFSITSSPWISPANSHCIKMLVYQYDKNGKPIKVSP
Assay: Inhibition rate of the amount of IP1 in GPR139-expressed CHO cells (inverse agonist assay, Test Example 2)
Format: cell-based
Conditions: CHO, relative value, inhibition rate of Example Compound 2 in Test Example 1 defined as 100%
Experimental: The measurement of IP1 was made using an IP-ONE HTFR assay kit (cis-bio) and CHO-TREx (Life Technologies) cells stably transfected with GPR139. The CHO-TREx cells expressed human GPR139 with a tetracycline-inducing element. The cells were cultured in a medium containing F12K and 10% tetracycline-free FBS, and the expression of human GPR139 was induced over the course of 17 hours under conditions of 37° C. and 5% CO2 in the presence of 2 μg/mL of doxycycline (Clontech, 631311) in the growth medium on the day before assay. On the day of the test, after the cells were washed with 10 mL of PBS, the cells were detached with TrypLE Express (Life Technologies) and centrifuged at 1,000 rpm to form pellets, and a cell suspension was then prepared using a stimulation buffer (cis-bio, included in the IP-ONE HTRF assay kit).
The compound was diluted with the stimulation buffer, and 4 μL was added to a 384-well white assay plate (Greiner). The cell suspension was added so that there were 2000 cells per well, and the assay plate was left to stand for 40 minutes at 37° C. Equal amounts of IP1-d2 and Ab-Crp solutions (both available from cis-bio, included in the IP-ONE HTRF assay kit) prepared with a lysis buffer (cis-bio, included in the IP-ONE HTRF assay kit) were mixed, and 4 μL was added to the assay plate and left to stand for one hour at room temperature. After the fluorescence strengths of two wavelengths were measured by the HTRF settings of Envision (PerkinElmer), the value of Ratio={(Signal 665 nm)/(Signal 615 nm)}×10000 was calculated.
Measurement of the Inhibition Rate of the Amount of IP1 in GPR139-Expressed CHO Cells (Inverse Agonist Assay)
The activities of the compounds of Examples 1 and 3 to 167 were expressed as relative values in Table 2 by measuring the inhibition rate of the amount of IP1 with the same method as in Test Example 1 and defining the inhibition rate of the amount of IP1 of Example Compound 2 in Test Example 1 as […].

Compound | inhibition at 30 µM [%]
CCn1cc(Cn2cc(C)n(-c3cc(OCC4CC(F)(F)C4)cc(C4CC4)c3)c2=O)cn1 [Example 67, 3-{3-cyclopropyl-5-[(3,3-difluorocyclobutyl)methoxy]phenyl}-1-[(1-ethyl-1H-pyrazol-4-yl)methyl]-4-methyl-1,3-dihydro-2H-imidazol-2-one] | 98
Cc1cn(-c2cc(OC3CCOCC3)cc(C(F)(F)F)c2F)c(=O)n1Cc1cnn(C(C)C)c1 [Example 119, 1-{2-fluoro-5-[(oxan-4-yl)oxy]-3-(trifluoromethyl)phenyl}-4-methyl-3-{[1-(propan-2-yl)-1H-pyrazol-4-yl]methyl}-1,3-dihydro-2H-imidazol-2-one] | 101
CCn1cc(Cn2c(C)c(C)n(-c3cc(OCC(F)(F)F)cc(N4CCO[C@H](C)C4)c3)c2=O)cn1 [Example 47, 1-[(1-ethyl-1H-pyrazol-4-yl)methyl]-4,5-dimethyl-3-{3-[(2R)-2-methylmorpholin-4-yl]-5-(2,2,2-trifluoroethoxy)phenyl}-1,3-dihydro-2H-imidazol-2-one] | 101
CCn1cc(Cn2cc(C)n(-c3cc(Br)cc(N4CCOC(C)(C)C4)c3)c2=O)cn1 [Example 137, 3-[3-bromo-5-(2,2-dimethylmorpholin-4-yl)phenyl]-1-[(1-ethyl-1H-pyrazol-4-y)methyl]-4-methyl-1,3-dihydro-2H-imidazol-2-one] | 98
CCn1cc(Cn2c(C)cn(-c3cc(N4CCC(F)(F)CC4)cc(Cl)c3F)c2=O)cn1 [Example 167, 1-[3-chloro-5-(4,4-difluoropiperidin-1-yl)-2-fluorophenyl]-3-[(1-ethyl-1H-pyrazol-4-yl)methyl]-4-methyl-1,3-dihydro-2H-imidazol-2-one] | 97
CCn1cc(Cn2ccn(-c3cc(N4CCO[C@H](C)C4)cc(C(F)(F)F)c3C)c2=O)cn1 [Example 8, 1-[(1-ethyl-1H-pyrazol-4-yl)methyl]-3-{2-methyl-5-[(2R)-2-methylmorpholin-4-yl]-3-(trifluoromethyl)phenyl}-1,3-dihydro-2H-imidazol-2-one] | 101
CCn1cc(Cn2cc(C)n(-c3cc(OCC4CC4(F)F)cc(C(F)(F)F)c3)c2=O)cn1 (centres unmarked) [Example 22, 3-{3-[(2,2-difluorocyclopropyl)methoxy]-5-(trifluoromethyl)phenyl}-1-[(1-ethyl-1H-pyrazol-4-yl)methyl]-4-methyl-1,3-dihydro-2H-imidazol-2-one] | 100
CCn1cc(Cn2cc(C)n(-c3cc(N(C)C4CCOCC4)cc(C(F)(F)F)c3)c2=O)cn1 [Example 38, 1-[(1-ethyl-1H-pyrazol-4-yl)methyl]-4-methyl-3-{3-[methyl(oxan-4-yl)amino]-5-(trifluoromethyl)phenyl}-1,3-dihydro-2H-imidazol-2-one] | 99
CCn1cc(Cn2cc(C)n(-c3cc(C(F)(F)F)nn3CCC3CCC3)c2=O)cn1 [Example 77, 3-[1-(2-cyclobutylethyl)-3-(trifluoromethyl)-1H-pyrazol-5-yl]-1-[(1-ethyl-1H-pyrazol-4-yl)methyl]-4-methyl-1,3-dihydro-2H-imidazol-2-one] | 100
CCn1cc(Cn2ccn(-c3cc(OC4CCOCC4)cc(C(F)(F)F)c3F)c2=O)cn1 [Example 116, 1-[(1-ethyl-1H-pyrazol-4-yl)methyl]-3-{2-fluoro-5-[(oxan-4-yl)oxy]-3-(trifluoromethyl)phenyl}-1,3-dihydro-2H-imidazol-2-one] | 101
CCn1cc(Cn2c(C)c(C)n(-c3cc(N4CCO[C@H](C)C4)cc(C(F)(F)F)c3)c2=O)cn1 [Example 16, 1-[(1-ethyl-1H-pyrazol-4-yl)methyl]-4,5-dimethyl-3-(3-[(2R)-2-methylmorpholin-4-yl]-5-(trifluoromethyl)phenyl}-1,3-dihydro-2H-imidazol-2-one] | 100
CCn1cc(Cn2ccn(-c3cc(N4CCO[C@H](C)C4)cc(C4CC4(F)F)c3F)c2=O)cn1 (stereo partly drawn) [Example 78, 1-{3-(2,2-difluorocyclopropyl)-2-fluoro-5-[(2R)-2-methylmorpholin-4-yl]phenyl}-3-[(1-ethyl-1H-pyrazol-4-yl)methyl]-1,3-dihydro-2H-imidazol-2-one] | 99
CCn1cc(Cn2c(C)cn(-c3cc(C(F)(F)F)nn3CCC3CCC3)c2=O)cn1 [Example 99, 1-[1-(2-Cyclobutylethyl)-3-(trifluoromethyl)-1H-pyrazole-5-yl]-3-[(I-ethyl-1H-pyrazole-4-yl)methyl]-4-methyl-1,3<dihydro-2H-imidazole-2-one] | 101
CCn1cc(Cn2c(C)c(C)n(-c3nc(N4CCO[C@H](C)C4)cc(C(F)(F)F)c3F)c2=O)cn1 [Example 59, 1-[(1-ethyl-1H-pyrazol-4-yl)methyl]-3-{3-fluoro-6-[(2R)-2-methylmorpholin-4-yl]-4-(trifluoromethyl)pyridin-2-yl}-4,5-dimethyl-1,3-dihydro-2H-imidazol-2-one] | 102

Further lines, results first:

inhibition at 30 µM [%] | Compound
101 | CCc1cn(Cc2cnn(CC)c2)c(=O)n1-c1cc(C(F)(F)F)cc(N2CCO[C@H](C)C2)n1 [Example 157, 4-ethyl-1-[(1-ethyl-1H-pyrazol-4-yl)methyl]-3-{6-[(2R)-2-methylmorpholin-4-yl]-4-(trifluoromethyl)pyridin-2-yl}-1,3-dihydro-2H-imidazol-2-one]
98 | CCn1cc(Cn2c(C)cn(-c3cc(N4CCO[C@H](C)C4)cc(C4CC4)c3F)c2=O)cn1 [Example 140, 1-{3-cyclopropyl-2-fluoro-5-[(2R)-2-methylmorpholin-4-yl]phenyl}-3-[(1-ethyl-1H-pyrazol-4-yl)methyl]-4-methyl-1,3-dihydro-2H-imidazol-2-one]
101 | Cc1cn(Cc2cnn(C(C)C)c2)c(=O)n1-c1cc(C(F)(F)F)cc(N(C)C2CCOCC2)n1 [Example 128, 4-methyl-3-{6-[methyl(oxan-4-yl)amino]-4-(trifluoromethyl)pyridin-2-yl}-1-{[1-(propan-2-yl)-1H-pyrazol-4-yl]methyl}-1,3-dihydro-2H-imidazol-2-one]
101 | Cc1cn(Cc2cnn(C(C)C)c2)c(=O)n1-c1cc(C(F)(F)F)cc(OC[C@@H]2CCCO2)n1 [Example 148, 4-methyl-3-[6-{[(2S)-oxolan-2-yl]methoxy}-4-(trifluoromethyl)pyridin-2-yl]-1-{[1-(propan-2-yl)-1H-pyrazol-4-yl]methyl}-1,3-dihydro-2H-imidazol-2-one]
100 | Cc1cn(Cc2cnn(C(C)C)c2)c(=O)n1-c1cc(C2CC2)cc(N2CCO[C@H](C)C2)n1 [Example 126, 3-{4-cyclopropyl-6-[(2R)-2-methylmorpholin-4-yl]pyridin-2-yl}-4-methyl-1-{[1-(propan-2-yl)-1H-pyrazol-4-yl]methyl}-1,3-dihydro-2H-imidazol-2-one]
98 | CCn1cc(Cn2cc(C)n(-c3cc(OCC(F)F)cc(N4CCO[C@H](C)C4)c3)c2=O)cn1 [Example 71, 3-{3-(2,2-difluoroethoxy)-5-[(2R)-2-methylmorpholin-4-yl]phenyl}-1-[(1-ethyl-1H-pyrazol-4-yl)methyl]-4-methyl-1,3-dihydro-2H-imidazol-2-one]
100 | Cc1cn(-c2cc(C(F)(F)F)cc(N3CCO[C@H](C)C3)n2)c(=O)n1Cc1cnn(C(C)C)c1 [Example 129, 4-methyl-1-{6-[(2R)-2-methylmorpholin-4-yl]-4-(trifluoromethyl)pyridin-2-yl}-3-{[1-(propan-2-yl)-1H-pyrazol-4-yl]methyl}-1,3-dihydro-2H-imidazol-2-one]
96 | CCn1cc(Cn2c(C)c(C)n(-c3cccc(N4CCO[C@H](C)C4)n3)c2=O)cn1 [Example 163, 1-[(1-ethyl-1H-pyrazol-4-yl)methyl]-4,5-dimethyl-3-{6-[(2R)-2-methylmorpholin-4-yl]pyridin-2-yl}-1,3-dihydro-2H-imidazol-2-one]

Same assay, conditions: relative value, inhibition rate of Example Compound 2 in Test Example 1 defined as 100%

Inhibition Rate at 30 μM [%] | Compound
98 | CCn1cc(Cn2ccn(-c3cc(N4CCC(F)(F)CC4)cc(C4CC4(F)F)c3F)c2=O)cn1 (centres unmarked) [Example 158, 1-[3-(2,2-difluorocyclopropyl)-5-(4,4-difluoropiperidin-1-yl)-2-fluorophenyl]-3-[(1-ethyl-1H-pyrazol-4-yl)methyl]-1,3-dihydro-2H-imidazol-2-one]
